These results are taken from ChEMBL document CHEMBL1124722, “Synthesis and anticonvulsant activity of 2-benzylglutarimides” (J Med Chem, 1990).

Calls of active or inactive are those of the source. No cut-off for these calls is given here.

Data set [1] deals with Mus musculus. Kind of data set: Anticonvulsant activity against subcutaneous administered Metrazol induced seizures (scMET) after 4 hr; Not active up to 300 mg/kg. Details: dose 300 mg/kg. It is filed as functional, organism-based.
In data set [2] the test system is Mus musculus. Kind of data set: Anticonvulsant activity against maximal electroshock induced seizures (MES) after 0.5 hr at 300 mg/kg; Active. It is filed as functional, organism-based. On the set-up: dose 300 mg/kg.
The test system of data set [3] is Mus musculus. Kind of data set: Anticonvulsant activity against maximal electroshock induced seizures after 4 hr; Not active up to 300 mg/kg. It is filed as functional, organism-based. On the set-up: dose 300 mg/kg.
Data set [4] concerns Mus musculus. Kind of data set: Anticonvulsant activity against subcutaneous administered Metrazol induced seizures (scMET) after 0.5 hr at 100 mg/kg; Active. Details: dose 100 mg/kg. It is filed as functional, organism-based.
In data set [5] the test system is Mus musculus. Kind of data set: The effective dose of compound was tested against maximal electroshock induced seizures after intraperitoneal administration. It is filed as functional. Conditions: ip.
The species entered for data set [6] is Mus musculus. Kind of data set: Time of peak effect was determined for toxicity. It is filed as organism-based. Details: unit not given here. Conditions: in vivo.
The test system of data set [7] is Mus musculus. Kind of data set: The effective dose of compound was tested against subcutaneous administered Metrazol induced seizures after intraperitoneal administration. It is filed as functional.
Data set [8] relates to Mus musculus. Kind of data set: (§1) The Neurologic toxicity by measuring rotarod test after 4 hr; Not active up to 300 mg/kg. It is filed as organism-based. Conditions: in vivo. Details: dose 300 mg/kg.
Data set [9] is described as follows: The cytotoxicity after intraperitoneal administration. It is filed as organism-based. Conditions: mouse, in vivo, ip.
Data set [10] deals with Mus musculus. Kind of data set: The Neurologic toxicity by measuring rotarod test after 0.5 hr at 300 mg/kg; Active. On the set-up: dose 300 mg/kg. Conditions: in vivo. It is filed as organism-based.
Data set [11] can be described thus: Protective index was calculated (TD50/ED50) in MES assay in mice after intraperitoneal administration. It is filed as functional.
Data set [12] is described as follows: Protective index was calculated (TD50/ED50) in scMET assay in mice after intraperitoneal administration. It is filed as functional.
The species entered for data set [13] is Mus musculus. Kind of data set: Time of peak effect was determined for activity in MES. It is filed as functional. Details: unit not given here.
Data set [14] has as its system Mus musculus. Kind of data set: Anticonvulsant activity against maximal electroshock induced seizures (MES) after 0.5 h; Not active up to 300 mg/kg. It is filed as functional, organism-based. On the set-up: dose 300 mg/kg.
For data set [15], the system named is Mus musculus. Kind of data set: Anticonvulsant activity against maximal electroshock induced seizures (MES) after 4 hr at 300 mg/kg; Active. It is filed as functional, organism-based. Details: dose 300 mg/kg.
In data set [16] the test system is Mus musculus. Kind of data set: Anticonvulsant activity against subcutaneous administered Metrazol induced seizures (scMET) after 0.5 hr at 300 mg/kg; Active. It is filed as functional, organism-based. On the set-up: dose 300 mg/kg.
Data set [17] relates to Mus musculus. Kind of data set: Anticonvulsant activity against subcutaneous administered Metrazol induced seizures (scMET) after 4 hr at 300 mg/kg; Active. It is filed as functional, organism-based. Details: dose 300 mg/kg.
The test system of data set [18] is Mus musculus. Kind of data set: (§2) The Neurologic toxicity by measuring rotarod test after 0.5 h; Not active up to 300 mg/kg. It is filed as organism-based. On the set-up: dose 300 mg/kg. Conditions: in vivo.
In data set [19] the test system is Mus musculus. Kind of data set: Anticonvulsant activity against subcutaneous administered Metrazol induced seizures (scMET) after 0.5 hr; Not active up to 300 mg/kg. It is filed as functional, organism-based. On the set-up: dose 300 mg/kg.
Data set [20] concerns Mus musculus. Described as §2. On the set-up: dose 300 mg/kg. It is filed as functional, organism-based.
Data set [21] has as its system Mus musculus. The data set is described as §1. It is filed as functional, organism-based. On the set-up: dose 300 mg/kg.
Data set [22] has as its system Mus musculus. Kind of data set: The Neurologic toxicity by measuring rotarod test after 4 hr at 300 mg/kg; Active. It is filed as organism-based. On the set-up: dose 300 mg/kg. Conditions: in vivo.
For data set [23], the system named is Mus musculus. Kind of data set: Anticonvulsant activity against subcutaneous administered Metrazol induced seizures (scMET) after 0.5 hr at 30 mg/kg; Active. It is filed as functional, organism-based. Details: dose 30 mg/kg.

Consider `CN1C(=O)CCC(Cc2ccc(Cl)cc2)C1=O` (centres undefined), for which the outcome with Mus musculus [1] and in the data set with Mus musculus [3] was inactive. Moreover, the result with Mus musculus [2] and in the data set on Mus musculus [4] was Active. In addition, the ED50 came out at 248 mg/kg with Mus musculus [5] and 124 mg/kg in the data set on Mus musculus [7]. The TPE in the data set filed under Mus musculus [6] was found to be 1; in the data set filed under Mus musculus [13] it was 0.5. For the same compound, the Toxicity result is reported as “Not Active” with Mus musculus [8] and “Active” in the data set on Mus musculus [10]. Further, in data set [9], the TD50 is 348 mg/kg. Further, the Ratio in data set [11] is given as 1.4; in data set [12] it was 2.81.

Take `CN1C(=O)CCC(Cc2ccc(C(F)(F)F)cc2)C1=O` (centres undefined): the result in the data set with Mus musculus [14] was inactive. In addition, the outcome in the data set on Mus musculus [15], in the data set on Mus musculus [16] and in the data set on Mus musculus [17] was Active. For the same compound, the Toxicity result with Mus musculus [18] and in the data set on Mus musculus [8] was “Not Active” throughout.

`CN1C(=O)CCC(Cc2ccc([Si](C)(C)C)cc2)C1=O` (centres undefined): the outcome in the data set on Mus musculus [1], in the data set with Mus musculus [14], in the data set on Mus musculus [3] and in the data set on Mus musculus [19] was inactive. The Toxicity entry with Mus musculus [20] and in the data set with Mus musculus [21] was “inactive” each time.

Consider `CN1C(=O)CCC(Cc2ccc(Br)cc2)C1=O` (centres undefined), for which the result in the data set on Mus musculus [1] and in the data set with Mus musculus [3] was inactive. Also, the result in the data set on Mus musculus [2] and in the data set on Mus musculus [4] was Active. The ED50 with Mus musculus [5] was 162 mg/kg; with Mus musculus [7], 143 mg/kg. Moreover, the TPE in the data set listed under Mus musculus [6] is reported as 1.5; in the data set listed under Mus musculus [13], 1. Besides, the Toxicity entry with Mus musculus [18] and in the data set with Mus musculus [8] was “Not Active” each time. Besides, the TD50 in data set [9] is 534 mg/kg. Further, the results for the Ratio in data set [11] and in data set [12] were 3.8 and 3.72, respectively.

With `O=C1CCC(Cc2ccc(C(F)(F)F)cc2)C(=O)N1` (centres undefined), the result with Mus musculus [2], with Mus musculus [15], with Mus musculus [4] and with Mus musculus [17] was Active. Moreover, the ED50 in the data set on Mus musculus [5] was 126 mg/kg; in the data set on Mus musculus [7], 119 mg/kg. In addition, the TPE was found to be 1 in the data set filed under Mus musculus [6] and 2 in the data set listed under Mus musculus [13]. The Toxicity result with Mus musculus [22] and with Mus musculus [10] was “Active” in each case. The TD50 in data set [9] worked out at 349 mg/kg. In addition, the results for the Ratio in data set [11] and in data set [12] were 2.76 and 2.92, respectively.

As to `CN1C(=O)CCC(Cc2ccccc2)C1=O` (centres undefined), the result in the data set on Mus musculus [1], in the data set with Mus musculus [14] and with Mus musculus [3] was inactive. Moreover, the Toxicity result with Mus musculus [18] and with Mus musculus [8] was “Not Active” each time.

`O=C1CCC(Cc2ccc(-c3ccccc3)cc2)C(=O)N1` (centres undefined): the outcome in the data set on Mus musculus [1], in the data set on Mus musculus [14], in the data set with Mus musculus [3] and in the data set on Mus musculus [19] was inactive. For the same compound, the Toxicity entry with Mus musculus [18] and with Mus musculus [8] was “Not Active” throughout.

`CCCOc1ccc(CC2CCC(=O)NC2=O)cc1` (centres undefined): the outcome in the data set on Mus musculus [1], with Mus musculus [14], in the data set with Mus musculus [3] and in the data set with Mus musculus [19] was inactive. In addition, the Toxicity entry with Mus musculus [22] and in the data set with Mus musculus [10] was “Active” in each case.

As to `CN1C(=O)CCC(Cc2ccc(I)cc2)C1=O` (centres undefined), the outcome in the data set with Mus musculus [14] and with Mus musculus [3] was inactive. Moreover, the outcome with Mus musculus [23] and in the data set on Mus musculus [17] was Active. Further, the Toxicity entry with Mus musculus [18] and in the data set with Mus musculus [8] was “Not Active” each time.
